Reference: US20080176866A1, “NOVEL HETARYL-PHENYLENEDIAMINE-PYRIMIDINES AS PROTEIN KINASE INHIBITORS” (priority 2006, published 2008)

Columns and labels:
CDK1/CycB = target: T1, CDK1/CycB (Homo sapiens, UniProt P06493); experiment: CDK1/CycB kinase assay; assay type: biochemical; conditions: 0.5 μM ATP, histone IIIS, 33P filter assay
T1 construct: GST; purchased ProQinase GmbH, Freiburg; host or cells: baculovirus-infected insect cells (Sf9)
Protocol: Recombinant CDK1- and CycB-GST fusion proteins, purified from baculovirus-infected insect cells (Sf9), were purchased from ProQinase GmbH, Freiburg. The histone IIIS used as kinase substrate can be purchased from Sigma.
CDK1/CycB (5 ng/μL) was incubated in the presence of various concentrations of test substances (0 μM, and within the range 0.01-100 μM) in 40 μL of assay buffer [50 mM Tris/HCl pH 8.0, 10 mM MgCl2, 0.1 mM Na ortho-vanadate, 1.0 mM dithiothreitol, 0.025% PEG 20000, 0.5 μM ATP, 10 μM histone IIIIS, 0.2 μCi/measurement point ^33P-gamma ATP, 0.05% NP40, 1.25% dimethyl sulphoxide] at 22° C. for 10 min. The reaction was stopped by adding EDTA solution (250 mM, pH 8.0, 15 μl/measurement point).
15 μl of each reaction mixture were loaded onto P30 filter strips (from Wallac), and non-incorporated ^33P-ATP was removed by washing the filter strips three times in 0.5% strength phosphoric acid for 10 min each time. After the filter strips had been dried at 70° C. for 1 hour, the filter strips were covered with scintillator strips (MeltiLex™ A, from Wallac) and baked at 90° C. for 1 hour. The amount of incorporated ^33P (substrate phosphorylation) was determined by scintillation measurement in a gamma radiation counter (Wallac).
The measured data were normalized to 0% inhibition (enzyme reaction without inhibitor) and 100% inhibition (all assay components except enzyme). The IC50 values were determined by means of a 4-parameter fit using the company's own software.

KDR kinase = target: T2, KDR kinase (Homo sapiens, UniProt P35968); experiment: KDR kinase assay (HTRF); assay type: biochemical; conditions: KDR kinase-GST, 10 μM ATP
T2 construct: GST; purchased ProQinase GmbH, Freiburg; host or cells: baculovirus-infected insect cells (Sf9)
T2 sequence (P35968 807-1356 limits assumed): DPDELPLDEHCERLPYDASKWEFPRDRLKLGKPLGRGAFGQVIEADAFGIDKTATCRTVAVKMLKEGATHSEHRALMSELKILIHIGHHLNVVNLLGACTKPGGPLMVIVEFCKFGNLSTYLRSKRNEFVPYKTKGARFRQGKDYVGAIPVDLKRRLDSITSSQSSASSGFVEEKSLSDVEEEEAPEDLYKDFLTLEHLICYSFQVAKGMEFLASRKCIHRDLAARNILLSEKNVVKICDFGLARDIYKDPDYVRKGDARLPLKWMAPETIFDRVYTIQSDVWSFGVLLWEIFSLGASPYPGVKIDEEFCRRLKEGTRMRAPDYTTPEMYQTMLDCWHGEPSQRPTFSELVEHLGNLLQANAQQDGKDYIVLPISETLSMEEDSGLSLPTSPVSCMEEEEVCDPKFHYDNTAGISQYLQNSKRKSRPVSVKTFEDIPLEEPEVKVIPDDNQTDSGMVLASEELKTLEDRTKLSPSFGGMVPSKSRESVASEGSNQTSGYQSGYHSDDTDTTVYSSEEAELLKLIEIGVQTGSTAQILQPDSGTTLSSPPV
Protocol: The KDR-inhibitory activity of the substances of this invention was measured in the KDR-HTRF assay (HTRF=Homogeneous Time Resolved Fluorescence) described in the following paragraphs.
Recombinant KDR kinase-GST fusion protein purified from baculovirus-infected insect cells (Sf9) was purchased from ProQinase GmbH, Freiburg. The substrate used for the kinase reaction was the biotinylated peptide biotin-Ahx-DFGLARDMYDKEYYSVG (C terminus in acid form) which can be purchased for example from Biosynthan GmbH (Berlin-Buch, Germany).
KDR kinase was incubated in the presence of various concentrations of test substances in 5 μL of assay buffer [50 mM Hepes/NaOH pH 7.0, 25 mM MgCl2, 5 mM MnCl2, 1.0 mM dithiothreitol, 0.1 mM sodium orthovanadate, 10 μM adenosine triphosphate (ATP), 0.5 μM substrate, 0.001% (v/v) Nonidet-P40 (Sigma), 1% (v/v) dimethyl sulphoxide] at 22° C. for 45 min. The concentration of KDR was adapted to the particular activity of the enzyme and adjusted so that the assay operated in the linear range. The reaction was stopped by adding 5 μl of a solution of HTRF detection reagents (0.1 μM streptavidin-XLent and 2 nM PT66-Eu chelate, a Europium chelate-labelled anti-phospho-tyrosine antibody from Perkin Elmer) in aqueous EDTA solution (125 mM EDTA, 0.2% (w/v) bovine serum albumin (BSA) in 50 mM HEPES/NaOH pH 7.0).
The resulting mixture was incubated at 22° C. for 1 h in order to allow formation of the biotinylated phosphorylated substrate and the streptavidin-XLent and PT66-Eu chelate. The amount of phosphorylated substrate was then estimated by measuring the resonance energy transfer from the PT66-Eu chelate to the streptavidin-XLent. For this purpose, the fluorescence emissions at 620 nm and 665 nm after excitation at 350 nm were measured in an HTRF measuring instrument, e.g. a Rubystar (BMG Labtechnologies, Offenburg, Germany) or a Viewlux (Perkin-Elmer). The ratio of the emissions at 665 nm and at 622 nm was taken as a measure of the amount of phosphorylated substrate. The data were normalized (enzymic reaction without inhibitor=0% inhibition, all other assay components but no enzyme=100% inhibition) and IC50 values were calculated with a 4-parameter fit using an inhouse software.

[1] = tested on: human MCF7 breast tumour cells; experiment: MCF7 proliferation assay; assay type: cell-based; conditions: 96 h, 4 days incubation, crystal violet staining
Protocol: Cultivated human MCF7 breast tumour cells (ATCC HTB-22) were plated out in a density of 5000 cells/measurement point in 200 μl of growth medium (RPMI1640, 10% foetal calf serum, 2 mU/mL insulin, 0.1 nM oestradiol) in a 96-well multititre plate. After 24 hours, the cells from a plate (zero plate) were stained with crystal violet (see below), while the medium in the other plates was replaced by fresh culture medium (200 μl) to which the test substances had been added in various concentrations (0 μM, and in the range 0.01-30 μM; the final concentration of the solvent dimethyl sulphoxide was 0.5%). The cells were incubated in the presence of the test substances for 4 days. The cell proliferation was determined by staining the cells with crystal violet: the cells were fixed by adding 20 μl/measurement point of an 11% strength glutaraldehyde solution at room temperature for 15 min. After the fixed cells had been washed three times with water, the plates were dried at room temperature. The cells were stained by adding 100 μl/measurement point of a 0.1% strength crystal violet solution (pH adjusted to pH 3 by adding acetic acid). After the stained cells had been washed three times with water, the plates were dried at room temperature. The dye was dissolved by adding 100 μl/measurement point of a 10% strength acetic acid solution, and the extinction was determined by photometry at a wavelength of 595 nm. The percentage change in cell growth was calculated by normalizing the measurements to the extinctions of the zero point plate (=0%) and the extinction of the untreated (0 μM) cells (=100%). The IC50 values were determined by means of a 4-parameter fit using the company's own software.

T1 sequence (P06493 whole entry): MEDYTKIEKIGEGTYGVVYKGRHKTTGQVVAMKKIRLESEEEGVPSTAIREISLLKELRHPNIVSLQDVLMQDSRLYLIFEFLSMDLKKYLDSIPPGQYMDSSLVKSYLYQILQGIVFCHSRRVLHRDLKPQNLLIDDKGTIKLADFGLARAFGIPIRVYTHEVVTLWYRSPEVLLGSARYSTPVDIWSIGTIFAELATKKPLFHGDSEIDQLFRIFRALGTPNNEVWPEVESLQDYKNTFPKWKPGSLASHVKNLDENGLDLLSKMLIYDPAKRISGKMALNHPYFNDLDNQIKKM
T1 sequence (P14635 whole entry partner): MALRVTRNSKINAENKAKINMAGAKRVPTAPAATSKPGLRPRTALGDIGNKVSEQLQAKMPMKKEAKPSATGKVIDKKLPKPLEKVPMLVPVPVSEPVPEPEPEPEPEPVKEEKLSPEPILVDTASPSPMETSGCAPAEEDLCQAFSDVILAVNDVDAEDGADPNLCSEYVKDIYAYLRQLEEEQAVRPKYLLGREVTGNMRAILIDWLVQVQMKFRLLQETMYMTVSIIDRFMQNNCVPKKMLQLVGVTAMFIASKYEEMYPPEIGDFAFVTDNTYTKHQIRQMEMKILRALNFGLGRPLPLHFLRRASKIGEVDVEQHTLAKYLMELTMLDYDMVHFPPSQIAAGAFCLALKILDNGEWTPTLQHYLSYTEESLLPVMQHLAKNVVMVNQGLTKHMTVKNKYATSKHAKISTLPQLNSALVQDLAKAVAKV

IC50 (CDK1/CycB) [nM] | IC50 (KDR kinase) [nM] | IC50 [1] [nM] | Compound
28 | 44 | 30 | C[C@@H](O)[C@@H](C)Oc1nc(Nc2ccc(Nc3nccc(OCCO)n3)cc2)ncc1Br [Example 8, (2R,3R)-3-(5-Bromo-2-{4-[4-(2-hydroxyethoxy)pyrimidin-2-ylamino]-phenylamino}pyrimidin-4-yloxy)butan-2-ol]
27 | 74 | 89 | C[C@@H](O)[C@@H](C)Oc1nc(Nc2ccc(Nc3ncccn3)cc2)ncc1Br [Example 15]
23 | 83 | 420 | C[C@@H](O)[C@@H](C)Oc1nc(Nc2ccc(Nc3nccc(N)n3)cc2)ncc1Br [Example 16]
71 | 62 | 98 | C[C@@H](O)[C@@H](C)Oc1nc(Nc2ccc(Nc3nccc(N(C)C)n3)cc2)ncc1Br [Example 17]
40 | 140 | 170 | C[C@@H](O)[C@@H](C)Oc1nc(Nc2ccc(Nc3nccc(NCCN(C)C)n3)cc2)ncc1Br [Example 18]
51 | 100 | 290 | Cc1cnc(Nc2ccc(Nc3ncc(Br)c(O[C@H](C)[C@@H](C)O)n3)cc2)nc1NCCO [Example 19]
54 | 73 | 91 | C[C@@H](O)[C@@H](C)Oc1nc(Nc2ccc(Nc3ncc(Cl)c(NCCO)n3)cc2)ncc1Br [Example 21]
130 | 120 | 130 | COc1ccnc(Nc2ccc(Nc3ncc(Br)c(O[C@H](C)[C@@H](C)O)n3)cc2)n1 [Example 22]
110 | 240 | 100 | C[C@@H](O)[C@@H](C)Oc1nc(Nc2ccc(Nc3ncc(Br)cn3)cc2)ncc1Br [Example 24]
14 | 75 | 270 | C[C@@H](O)[C@@H](C)Oc1nc(Nc2cccc(Nc3ncccn3)c2)ncc1Br [Example 25]
16 | 32 | 33 | C[C@@H](O)[C@@H](C)Oc1nc(Nc2cccc(Nc3nccc(OCCO)n3)c2)ncc1Br [Example 27]
> 1000 | > 20000 | > 3000 | CSc1nc(Nc2ccc(Nc3ccccn3)cc2)ncc1Br [Example 29]
 | 21 | 2000 | CC(=O)NCCNc1nc(Nc2cccc(Nc3ncc(Br)c(NCCNC(C)=O)n3)c2)ncc1Br [Example 30]
78 | 50 | 270 | C[C@@H](O)[C@@H](C)Nc1nc(Nc2ccc(Oc3cccnc3)cc2)ncc1Br [Example 33]
35 | 100 |  | C[C@@H](O)[C@@H](C)Nc1nc(Nc2ccc(Oc3ncccn3)cc2)ncc1Br [Example 34]
11 | 41 |  | C[C@@H](O)[C@@H](C)Nc1nc(Nc2ccc(Sc3nncn3C)cc2)ncc1Br [Example 39]
> 1000 | 7300 | > 3000 | C[C@@H](O)[C@@H](C)Sc1nc(Nc2ccc(Nc3ncc(Cl)c(NCCO)n3)cc2)ncc1Br [Example 44]
